Data as given in patent publication US7723119B2, “Method for determining solubility of a chemical compound” (Sirius Analytical Instruments Ltd., priority 2004, dated 2010).

Assay: solubility determination by Chasing Equilibrium pH-metric titration
Type: physicochemical
Text: In the Dissolution stage, the test solution is titrated with base titrant. In the Seeking Precipitation and Additional Precipitation stages, the test solution is titrated with acid titrant.
After the final data point of the Additional Precipitation stage has been collected, the method moves on to the Chasing Equilibrium stage. Chasing Equilibrium for an acidic sample is based on the following principles:
The first points are collected while adding base titrant to a supersaturated test solution. The addition of titrant is controlled by a computer program. The slope decreases with each aliquot of base that is added. […] Another aliquot of base is added to confirm that the slope is negative. If the slope remains negative, another data point is taken after adding no titrant. […] By successively adding aliquots of base and acid, the slope can be forced to change direction. When the slope has changed direction several (e.g. five) times the Chasing Equilibrium stage of the procedure is deemed to be complete.
The concentration of unionised solute in solution is calculated for each point in FIG. 7, and plotted against slope (pH/min) as shown in FIG. 8. The points are then connected by a line in the same order that they appeared in FIG. 7. The points corresponding to where the line crosses the zero value of the slope (pH/min) axis are determined by interpolation. The concentration equivalent to these zero slope, crossing points is determined. The solubility is then obtainable as the mean concentration calculated from the several zero slope, crossing points.
For each point located on either side of a zero slope crossing, the amount of neutral sample in solution could be calculated in the following steps:
1. […]
4. The concentration of free positive ions (e.g. K^+) is determined from the amount of base titrant (e.g. KOH) plus any positive ions in the test compound if it was a salt: [K^+]=(vbcb+mszs+/wf)/vt • wherein: cb is the concentration of base titrant • ms is the sample weight of test compound • zs+ is the charge of any positive salt counter-ions • wf is the formula weight of the test compound. […]

O=C(O)Cc1ccccc1Nc1c(Cl)cccc1Cl [diclofenac]
solubility thermodynamic (0.15 M KCl solution titrated with acid and base, saline or isotonic, thermodynamic from solid, straight line interpolation of points A and B to zero pH slope, 0.15M KCl solution, sample introduced as sodium salt, read-out: equilibrium solubility (concentration of unionised compound at zero pH slope)): ~0.732 µg/mL | dissolved neutral test sample (point A, one side of zero-slope crossing, pH=5.64453, pH slope=2.87 E-05): 759 ng/mL | dissolved neutral test sample (point B, other side of zero-slope crossing, pH=5.70437, pH slope=-3.5 E-06): 728 ng/mL
